Experimental data from publication PMC5514901, “Synthesis and evaluation of anthranilamide-based derivatives as FXa inhibitors” (Oncotarget, 2017).

What was measured:
human FXa = target: T1, human FXa (Homo sapiens, UniProt P00742); assay: Inhibition activity measurement against FXa (chromogenic substrate CS-11(22)); assay type: biochemical; details: human FXa; for IC50: chromogenic substrate, 37°C, read at 405 nm
T1 construct: purchased Hyphen BioMed
Method: The inhibition of FXa was measured using human FXa (Hyphen BioMed, city, Paris, FRA) and chromogenic substrate CS-11(22) (Hyphen BioMed, Paris, FRA) in 384-well microtiter plates at room temperature. […] 2 μL of FXa (56.8 nM), 16 μL of Tris buffer (adjust to pH 7.4 with HCl containing 0.3 M NaCl and 50 mM Tris) and 3 μL of test compound were added to the well, respectively. The negative control was composed of the same mixed solutions except replacing test compound with DMSO. […] After incubated at 37°C for 5 min, 8 μL of FXa substrate solution (3.5 mM) was added and then incubated at 37°C for 25 min. The FXa activity was measured at 405 nm using a SpectraMax M5 (Molecular Devices, Sunnyvale, CA, USA). The IC50 was calculated by the software named SPSS (IBM, North Castle, NY, USA) and the Probit function in it.

human plasma = assay: Prothrombin time (PT) assay; assay type: biochemical; details: concentration doubling prothrombin time in human plasma
Method: A commercially available automatic coagulometer (Steellex Science Instrument Co., Ltd., Beijing, China) was employed to measure PT. The clotting times were also measured using the instrument itself, in accordance with the manufacturer's instructions. Increasing concentrations of inhibitor or solvent were added to human plasma and incubated for 3 min at 37°C. Prothrombin time (PT) was determined by automatic coagulometer.

human FIIa (thrombin) = tested on: human FIIa (thrombin); design: method as in PMID 16305517; details: read-out: IC50 against thrombin; cited from earlier work

T1 sequence (P00742 235-488 limits assumed): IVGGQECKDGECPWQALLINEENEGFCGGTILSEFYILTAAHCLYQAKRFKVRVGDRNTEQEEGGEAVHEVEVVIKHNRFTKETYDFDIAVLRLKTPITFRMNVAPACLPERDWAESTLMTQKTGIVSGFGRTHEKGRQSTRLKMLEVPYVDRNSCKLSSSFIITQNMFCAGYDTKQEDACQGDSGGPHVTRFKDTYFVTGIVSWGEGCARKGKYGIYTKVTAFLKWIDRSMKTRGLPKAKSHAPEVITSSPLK
T1 sequence (P00742 41-179 partner limits assumed): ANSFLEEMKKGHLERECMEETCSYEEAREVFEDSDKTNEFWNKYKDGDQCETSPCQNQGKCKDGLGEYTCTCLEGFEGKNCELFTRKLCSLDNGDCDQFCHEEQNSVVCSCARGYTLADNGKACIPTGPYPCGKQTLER

| Ki (human FXa) [nM] | IC50 (human FXa) [nM] | melting point [°C] | Structure (SMILES) | 2 × PT (Human) (human plasma) [µM] | IC50 (human FIIa (thrombin)) [nM] |
| --- | --- | --- | --- | --- | --- |
| 17 | 23.8 | > 250 | O=C(Nc1ccccc1C(=O)Nc1ccc(-n2ccccc2=O)cc1)c1ccc(Cl)cc1Cl [6k, 2,4-dichloro-N-(2-((4-(2-oxopyridin-1(2H)-yl)phenyl)arbamoyl)phenyl)benzamide] | 16.4 |  |
| 58.6 | 82 | > 250 | O=C(Nc1ccc(Cl)cc1C(=O)Nc1ccc(-n2ccccc2=O)cc1)c1ccc(Cl)cc1Cl [6k-a, 2,4-dichloro-N-(4-chloro-2-((4-(2-oxopyridin-1(2H)-yl)phenyl)carbamoyl)phenyl)benzamide] | 16.9 |  |
| 25.4 | 35.5 | > 250 | Cc1ccc(NC(=O)c2ccc(Cl)cc2Cl)c(C(=O)Nc2ccc(-n3ccccc3=O)cc2)c1 [6k-b, 2,4-dichloro-N-(4-methyl-2-((4-(2-oxopyridin-1(2H)-yl)phenyl)carbamoyl)phenyl)benzamide] | 11.3 |  |
|  |  |  | O=C(NC[C@H]1CN(c2ccc(N3CCOCC3=O)cc2)C(=O)O1)c1ccc(Cl)s1 [rivaroxaban, reference compound] | 0.2 | 6900 |
